Key:
Assay type in all cases: in vivo
[1] = test system: Red Spider Mite (Tetranychus kanzawai); test: B.10 Red spider mite test on sprayed cowpea beans; details: in comparison with untreated controls, 72 hours after treatment
Protocol: B.10 Red Spider Mite (Tetranychus kanzawai)
The active compound is dissolved at the desired concentration in a mixture of 1:1 (vol:vol) distilled water:acetone. Add surfactant (Alkamuls® EL 620) at the rate of 0.1% (vol/vol). The test solution is prepared at the day of use. Potted cowpea beans of 7-10 days of age were cleaned with tap water and sprayed with 5 ml of the test solution using air driven hand atomizer. The treated plants were allowed to air dry and afterwards inculated with 20 or more mites by clipping a cassava leaf section with known mite population. Treated plants were placed inside a holding room at about 25-27° C. and about 50-60% relative humidity. Percent mortality was assessed 72 hours after treatment.

[2] = test system: Green Peach Aphid (Myzus persicae); test: B.3 Green peach aphid systemic test, artificial diet under membrane; details: 72 h, concentration of the test solution 2500 mg/L, 3 days
Excerpt: B.3 Green Peach Aphid (Myzus persicae)
For evaluating control of green peach aphid (Myzus persicae) through systemic means the test unit consisted of 96-well-microtiter plates containing liquid artificial diet under an artificial membrane. The compounds were formulated using a solution containing 75% v/v water and 25% v/v DMSO. Different concentrations of formulated compounds were pipetted into the aphid diet, using a custom built pipetter, at two replications. After application, 5-8 adult aphids were placed on the artificial membrane inside the microtiter plate wells. The aphids were then allowed to suck on the treated aphid diet and incubated at about 23±1° C. and about 50±5% relative humidity for 3 days. Aphid mortality and fecundity was then visually assessed.

[3] = test system: Rice brown plant hopper (Nilaparvata lugens); test: B.11 Rice brown plant hopper test on sprayed rice seedlings; details: in comparison with untreated controls, after 72 hours
Protocol: B.11 Rice brown plant hopper (Nilaparvata lugens)
Rice seedlings were cleaned and washed 24 hours before spraying. The active compounds were formulated in 50:50 acetone:water (vol:vol) and 0.1% vol/vol surfactant (EL 620) was added. Potted rice seedlings were sprayed with 5 ml test solution, air dried, placed in cages and inoculated with 10 adults. Treated rice plants were kept at about 28-29° C. and relative humidity of about 50-60%. Percent mortality was recorded after 72 hours.

[4] = test system: Yellow Fever Mosquito (Aedes aegypti); test: whole plant or invertebrate; details: 48 h, in comparison with untreated controls, larval mortality after 2 days
Protocol: B.12 Yellow Fever Mosquito (Aedes aegypti)
For evaluating control of yellow fever mosquito (Aedes aegypti) the test unit consisted of 96-well-microtiter plates containing 200 μl of tap water per well and 5-15 freshly hatched A. aegypti larvae. The compounds or mixtures were formulated using a solution containing 75% water and 25% DMSO. Different concentrations of formulated compounds or mixtures were sprayed onto the insect diet at 2.5 μl, using a custom built micro atomizer, at two replications. After application, microtiter plates were incubated at 28±1° C., 80±5% relative humidity for 2 days. Larval mortality was then visually assessed.

[5] = test system: Boll Weevil (Anthonomus grandis); test: B.9 Boll weevil microtiter diet test, egg and larval mortality; details: 120 h, in comparison with untreated controls, egg and larval mortality after 5 days
Protocol: B.9 Boll Weevil (Anthonomus grandis)
For evaluating control of boll weevil (Anthonomus grandis) the test unit consisted of 24-well-microtiter plates containing an insect diet and 20-30 A. grandis eggs. The compounds were formulated using a solution containing 75% v/v water and 25% v/v DMSO. Different concentrations of formulated compounds were sprayed onto the insect diet at 20 μl, using a custom built micro atomizer, at two replications. After application, microtiter plates were incubated at about 23±1° C. and about 50±5% relative humidity for 5 days. Egg and larval mortality was then visually assessed.

[6] = test system: Silverleaf Whitefly (Bemisia argentifolii); test: B.5 Silverleaf whitefly test on sprayed cotton plants; details: 72 h, in comparison with untreated controls, 3 days after treatment
Protocol: B.5 Silverleaf Whitefly (Bemisia argentifolii)
The active compounds were formulated in cyclohexanone as a 10,000 ppm solution supplied in 1.3 ml ABgene® tubes. These tubes were inserted into an automated electrostatic sprayer equipped with an atomizing nozzle and they served as stock solutions for which lower dilutions were made in 50% acetone:50% water (v/v). A nonionic surfactant (Kinetic®) was included in the solution at a volume of 0.01% (v/v). Cotton plants at the cotyledon stage (one plant per pot) were sprayed by an automated electrostatic plant sprayer equipped with an atomizing spray nozzle. The plants were dried in the sprayer fume hood and then removed from the sprayer. Each pot was placed into a plastic cup and 10 to 12 whitefly adults (approximately 3-5 days old) were introduced. The insects were collected using an aspirator and 0.6 cm, nontoxic Tygon® tubing (R-3603) connected to a barrier pipette tip. The tip, containing the collected insects, was then gently inserted into the soil containing the treated plant, allowing insects to crawl out of the tip to reach the foliage for feeding. Cups were covered with a reusable screened lid (150-micron mesh polyester screen PeCap from Tetko, Inc.). Test plants were maintained in a growth room at 25° C. and 20-40% relative humidity for 3 days, avoiding direct exposure to fluorescent light (24 hour photoperiod) to prevent trapping of heat inside the cup. Mortality was assessed 3 days after treatment, compared to untreated control plants.

[7] = test system: Vetch Aphid (Megoura viciae); test: B.7 Vetch aphid test on broad bean leaf disks; details: foliar, 120 h, in comparison with untreated controls, 5 days
Protocol: B.7 Vetch Aphid (Megoura viciae)
For evaluating control of vetch aphid (Megoura viciae) through contact or systemic means the test unit consisted of 24-well-microtiter plates containing broad bean leaf disks. The compounds were formulated using a solution containing 75% v/v water and 25% v/v DMSO. Different concentrations of formulated compounds were sprayed onto the leaf disks at 2.5 μl, using a custom built micro atomizer, at two replications. After application, the leaf disks were air-dried and 5-8 adult aphids placed on the leaf disks inside the microtiter plate wells. The aphids were then allowed to suck on the treated leaf disks and incubated at about 23±1° C. and about 50±5% relative humidity for 5 days. Aphid mortality and fecundity was then visually assessed.

[8] = test system: Cowpea Aphid (Aphis craccivora); test: B.1 Cowpea aphid spray test on potted cowpea plants; details: in comparison with untreated controls, population reduction assessed after 24, 72 and 120 hours
Protocol: B.1 Cowpea Aphid (Aphis craccivora)
The active compounds were formulated in 50:50 (v/v) acetone:water. The test solution was prepared at the day of use. Potted cowpea plants colonized with approximately 100-150 aphids of various stages were sprayed after the pest population has been recorded. Population reduction was assessed after 24, 72, and 120 hours.

[9] = test system: Orchid Thrips (Dichromothrips corbetti); test: B.4 Orchid thrips floral-immersion test; details: 96 h, in comparison with untreated controls, after 4 days
Protocol: B.4 Orchid Thrips (Dichromothrips Corbetti)
Dichromothrips corbetti adults used for bioassay are obtained from a colony maintained continuously under laboratory conditions. For testing purposes, the test compound is diluted to a concentration of 300 ppm (wt compound: vol diluent) in a 1:1 mixture of acetone:water (vol:vol), plus 0.01% vol/vol Kinetic® surfactant. Thrips potency of each compound is evaluated by using a floral-immersion technique. Plastic petri dishes are used as test arenas. All petals of individual, intact orchid flowers are dipped into treatment solution and allowed to dry. Treated flowers are placed into individual petri dishes along with 10-15 adult thrips. The petri dishes are then covered with lids. All test arenas are held under continuous light and a temperature of about 28° C. for duration of the assay. After 4 days, the numbers of live thrips are counted on each flower, and along inner walls of each petri dish. The level of thrips mortality is extrapolated from pre-treatment thrips numbers.

[10] = test system: Southern Armyworm (Spodoptera eridania); test: B.6 Southern armyworm test on sprayed lima bean plants; details: 96 h, 500 ppm, in comparison with untreated controls, 4 days after treatment
Protocol: B.6 Southern Armyworm (Spodoptera eridania)
The active compounds were formulated in cyclohexanone as a 10,000 ppm solution supplied in 1.3 ml ABgene® tubes. These tubes were inserted into an automated electrostatic sprayer equipped with an atomizing nozzle and they served as stock solutions for which lower dilutions were made in 50% acetone:50% water (v/v). A nonionic surfactant (Kinetic®) was included in the solution at a volume of 0.01% (v/v). Lima bean plants (variety Sieva) were grown 2 plants to a pot and selected for treatment at the 1st true leaf stage. Test solutions were sprayed onto the foliage by an automated electrostatic plant sprayer equipped with an atomizing spray nozzle. The plants were dried in the sprayer fume hood and then removed from the sprayer. Each pot was placed into perforated plastic bags with a zip closure. Ten to 11 armyworm larvae were placed into the bag and the bags zipped closed. Test plants were maintained in a growth room at 25° C. and 20-40% relative humidity for 4 days, avoiding direct exposure to fluorescent light (24 hour photoperiod) to prevent trapping of heat inside the bags. Mortality and reduced feeding were assessed 4 days after treatment, compared to untreated control plants.

[11] = test system: Mediterranean Fruitfly (Ceratitis capitata); test: B.2 Mediterranean fruitfly microtiter diet test, egg and larval mortality; details: 120 h, in comparison with untreated controls, egg and larval mortality after 5 days
Protocol: B.2 Mediterranean Fruitfly (Ceratitis capitata)
For evaluating control of Mediterranean fruitfly (Ceratitis capitata) the test unit consisted of microtiter plates containing an insect diet and 50-80 C. capitata eggs. The compounds were formulated using a solution containing 75% v/v water and 25% v/v DMSO. Different concentrations of formulated compounds were sprayed onto the insect diet at 5 μl, using a custom built micro atomizer, at two replications. After application, microtiter plates were incubated at about 28±1° C. and about 80±5% relative humidity for 5 days. Egg and larval mortality was then visually assessed.

[12] = test system: Green Soldier Stink Bug (Nezara viridula); test: B.15 Green soldier stink bug test on sprayed soybean pods; details: 120 h, in comparison with untreated controls, after 5 days
Protocol: B.15 Green Soldier Stink Bug (Nezara viridula)
The active compound is dissolved at the desired concentration in a mixture of 1:1 (vol:vol) distilled water:aceteone. Surfactant (Kinetic HV) is added at a rate of 0.01% (vol/vol). The test solution is prepared at the day of use. Soybean pods were placed in microwavable plastic cups lined with moist filter paper and inoculated with ten 3rd instar N. viridula. Using a hand atomizer, an approximately 2 ml solution is sprayed into each cup. Treated cups were kept at about 28-29° C. and relative humidity of about 50-60%. Percent mortality was recorded after 5 days.

[13] = test system: Tobacco Budworm (Heliothis virescens); test: B.8 Tobacco budworm test on sprayed cotton plants; details: 96 h, in comparison with untreated controls, 4 days after treatment
Protocol: B.8 Tobacco Budworm (Heliothis virescens) I
The active compounds were formulated in cyclohexanone as a 10,000 ppm solution supplied in tubes. The tubes were inserted into an automated electrostatic sprayer equipped with an atomizing nozzle and they served as stock solutions for which lower dilutions were made in 50% acetone:50% water (v/v). A nonionic surfactant (Kinetic®) was included in the solution at a volume of 0.01% (v/v). Cotton plants were grown 2 plants to a pot and selected for treatment at the cotyledon stage. Test solutions were sprayed onto the foliage by an automated electrostatic plant sprayer equipped with an atomizing spray nozzle. The plants were dried in the sprayer fume hood and then removed from the sprayer. Each pot was placed into perforated plastic bags with a zip closure. About 10 to 11 budworm larvae were placed into the bag and the bags zipped closed. Test plants were maintained in a growth room at about 25° C. and about 20-40% relative humidity for 4 days, avoiding direct exposure to fluorescent light (24 hour photoperiod) to prevent trapping of heat inside the bags. Mortality and reduced feeding were assessed 4 days after treatment, compared to untreated control plants.

CC(c1ccc(F)cn1)C(C#N)(C#N)c1ccc(F)cc1 (stereo not shown) [II-9]
≥ 75%: mortality at 500 ppm [1] | mortality at 2500 µg/mL [2] | mortality at 300 ppm [3] | mortality at 2500 ppm [4] | mortality at 2500 ppm [5] | mortality at 500 ppm [6]

N#CC(C#N)(Cc1ncc(C(F)(F)F)cn1)c1ccccc1 [II-16]
≥ 75%: mortality at 2500 ppm [7] | mortality at 500 ppm [1] | mortality at 2500 µg/mL [2] | mortality at 500 ppm [8] | mortality at 300 ppm [3] | mortality at 2500 ppm [4] | mortality at 500 ppm [9] | mortality at 2500 ppm [5] | mortality at 500 ppm [10] | mortality at 500 ppm [6]

N#CC(C#N)(Cc1cnc(C(F)(F)F)nc1)c1ccccc1 [II-20]
≥ 75%: mortality at 2500 ppm [7] | mortality at 2500 ppm [11] | mortality at 500 ppm [1] | mortality at 2500 µg/mL [2] | mortality at 500 ppm [8] | mortality at 300 ppm [3] | mortality at 2500 ppm [4] | mortality at 500 ppm [9] | mortality at 2500 ppm [5] | mortality at 500 ppm [6] | mortality at 500 ppm [12]

N#CC(C#N)(Cc1cnc(C(F)(F)F)cn1)c1cccc(F)c1 [II-28]
≥ 75%: mortality at 2500 ppm [7] | mortality at 500 ppm [1] | mortality at 500 ppm [8] | mortality at 2500 ppm [4] | mortality at 500 ppm [9] | mortality at 2500 ppm [5] | mortality at 500 ppm [6]

N#CC(C#N)(Cc1cccnc1)c1ccccc1 [II-31]
≥ 75%: mortality at 2500 ppm [13] | mortality at 2500 ppm [5] | mortality at 500 ppm [6]

N#CC(C#N)(Cc1ccc(C(F)(F)F)nc1)c1cc(F)c(F)c(F)c1 [II-43]
≥ 75%: mortality at 2500 ppm [7] | mortality at 2500 ppm [11] | mortality at 500 ppm [1] | mortality at 2500 µg/mL [2] | mortality at 500 ppm [8] | mortality at 300 ppm [3] | mortality at 2500 ppm [4] | mortality at 500 ppm [9] | mortality at 2500 ppm [5]

N#CC(C#N)(Cc1ccc(F)nc1F)c1ccccc1 [II-50]
≥ 75%: mortality at 2500 ppm [13] | mortality at 2500 ppm [4] | mortality at 500 ppm [9]

N#CC(C#N)(Cc1ccc(F)nc1F)c1ccc(F)cc1 [II-51]
≥ 75%: mortality at 500 ppm [1] | mortality at 2500 ppm [4] | mortality at 500 ppm [9]

— patent publication US10117430B2, “Malononitrile compounds for controlling animal pests” (BASF SE, priority 2012, dated 2018)
